Assay results from patent US6194423A, “Fused isoquinolines as dopamine receptor ligands” (priority 1999, dated 2001).
“Also recorded” adds a separate entry of the source.

Legend:
D1 receptor = details: cited from earlier work
[1] = molecular target: T1, rat striatal D1 receptors (Rattus norvegicus, UniProt P18901); test: D1 receptor binding ([3H]SCH23390) in rat striatal homogenates; details: for D1 binding nH (Hill slope): competition against 3H-SCH23390
T1 construct: Frozen rat striata were homogenized; from tissue; host or cells: rat striatum (adult male Sprague Dawley), washed membrane homogenate
Method: Dopamine receptor binding assays.
Data analysis for radioreceptor assays. […] Data were normalized by expressing the average dpm at each competitor concentration as a percentage of total binding.
Competition curves were analyzed by non linear regression to determine estimates for the K0.5 and Hill slope (nH). Data represent the mean and standard error from three independent assays for each test compound.

D1 receptors = test: Adenylate cyclase activity (cAMP accumulation) in rat striatal homogenates; assay type: biochemical; details: rat striatum; for agonist activity / efficacy, in words: relative to dopamine
Method: Adenylate cyclase activity in rat striatum. The automated HPLC method of Schulz and Mailman was used to measure adenylate cyclase activity by separating cAMP from other labeled nucleotides. […] Triplicate determinations were performed for each drug concentration.
The reaction proceeded for 15 min at 30° C. and was terminated by the addition of 100 μL of 3% sodium dodecyl sulfate (SDS). […] Samples were centrifuged (10,000×g for 8-9 min), and the supernatants injected on an HPLC system (Waters Z-module or RCM 8×10 module equipped with a C18, 10 micron cartridge). […] The radioactivity in each fraction was determined by a flow-through radiation detector (Inus Systems, Tampa, Fla.) using Cerenkov counting. Sample recovery was based on UV measurement of total unlabeled CAMP peak areas quantified using PE Nelson (Cupertino, Calif.) Model 900 data collection modules and TurboChrom software.
Data analysis for adenylate cyclase studies. Data for each sample were expressed initially as pmol/mg/min cAMP. Baseline values of cAMP were subtracted from the total amount of cAMP produced in each drug condition. Data for each drug were expressed relative to the stimulation produced by 100 μM DA.

[2] = molecular target: T2, primate D1A receptors expressed in C-6 glioma cells (Macaca mulatta, UniProt O77680); test: Adenylate cyclase (cAMP accumulation) assay in C-6-mD1A cell membranes; assay type: biochemical, rhesus macaque; details: for agonist activity / efficacy, in words: cloned primate D1A receptors in C-6 glioma cells, relative to dopamine
T2 construct: expressed in transfected cells; host or cells: C-6 glioma cells (C-6-mD1A), membranes
Method: Cell Cultures. C-6 glioma cells expressing the rhesus macaque D1 A receptor, (C-6-mD1A; Machida et al., 1992) were grown in DMEM-H medium containing 4,500 mg/L glucose, L-glutamine, 5% fetal bovine serum and […] G418 or 2 μg/mL puromycin. Cells were maintained in a humidified incubator at 37° C. with 5% CO2.
Membrane Preparation. Cells were grown in 75 cm^2 flasks until confluent. The cells were rinsed and lysed with 10 mL of ice cold hypoosmotic buffer (HOB) (5 mM Hepes, 2.5 mM MgCl2, 1 mM EDTA; pH 7.4) for 10 minutes at 4° C. Cells were then scraped from the flasks using a sterile cell scraper from Baxter (McGaw Park, Ill.). Flasks received a final rinse with 5 mL of HOB. The final volume of the cell suspension recovered from each flask was ca. 14 mL. Scraped membranes from several flasks were then combined. The combined cell suspension was homogenized (10 strokes), 14 mL at a time, using a 15 mL Wheaton Teflon-glass homogenizer. The cell homogenates were combined and spun at 43,000×g (Sorvall RC-5B/SS-34, Du Pont, Wilmington, Del.) at 4° C. for 20 min. The supernatant was removed, and the pellet was resuspended (10 strokes) in 1 mL of ice cold HOB for each original flask of cells homogenized. This homogenate was then spun again at 43,000×g at 4° C. for 20 min. The supernatant was removed and the final pellet was resuspended (10 strokes) in ice cold storage buffer (50 mM Hepes, 6 mM MgCl2, 1 mM EDTA; pH 7.4) to yield a final concentration of ca. 2.0 mg of protein/mL. Aliquots of the final homogenate were stored in microcentrifuge tubes at -80° C.
Adenylate cyclase assay in C-6mD1A cells. Frozen membranes were thawed and added to assay tubes (10 μg protein/tube) containing a prepared reaction mixture [100 TnM Hepes, (pH 7.4), 100 mM NaCl, 4 mM MgCl2, 2 mM EDTA, 500 μM isobutyl methylxanthine (IBMX), 0.01% ascorbic acid, 10 μM pargyline, 2 mM ATP, 5 μM GTP, 20 mM phosphocreatine, 5 units of creatine phosphokinase (CPK), 1 μM propranolol] and selected drugs. The final reaction volume was 100 μL.
Basal cAMP activity was determined by incubation of tissue in the reaction mixture with no drug added. Tubes were assayed in duplicate and, after a 15 min incubation at 30° C., the reaction was stopped by the addition of 500 μL of 0.1 N HCl. Tubes were vortexed briefly, and then spun in a BHG HermLe Z 230 M microcentrifuge for five min at 15,000×g to precipitate particulates.
Radioimmunoassay (RIA) of CAMP. The concentration of cAMP in each sample was determined with an RIA of acetylated cAMP, modified from that previously described. Iodination of cAMP was performed using a method reported by Patel and Linden. Assay buffer was 50 mM sodium acetate buffer with 0.1% sodium azide (pH 4.75). Standard curves of cAMP were prepared in buffer at concentrations of 2 to 500 fmol/assay tube. To improve assay sensitivity, all samples and standards were acetylated with 10 μl of a 2:1 solution of triethylamine:acetic anhydride. Samples were assayed in duplicate. Each assay tube (total volume 300 μL) contained 25 μL of each sample, 75 μL of buffer, 100 μL of primary antibody (sheep, anti-cAMP, 1:100,000 dilution with 1% BSA in buffer) and 100 μL of [^125 I]-cAMP (50,000 dpm/100 μL of buffer). Tubes were vortexed and stored at 4° C. overnight (approx. 18 h). Antibody-bound radioactivity was separated by the addition of 25 μL of BioMag rabbit, anti-goat IgG (Advanced Magnetics, Cambridge Mass.), followed by vortexing and incubation at 4° C. for 1 h. […]

MPTP-treated monkey = MPTP-treated monkey model; cited from earlier work
D2 receptors = D2 receptors (Rattus norvegicus, UniProt P61169)
Sequence of D2 receptors (P61169 whole entry): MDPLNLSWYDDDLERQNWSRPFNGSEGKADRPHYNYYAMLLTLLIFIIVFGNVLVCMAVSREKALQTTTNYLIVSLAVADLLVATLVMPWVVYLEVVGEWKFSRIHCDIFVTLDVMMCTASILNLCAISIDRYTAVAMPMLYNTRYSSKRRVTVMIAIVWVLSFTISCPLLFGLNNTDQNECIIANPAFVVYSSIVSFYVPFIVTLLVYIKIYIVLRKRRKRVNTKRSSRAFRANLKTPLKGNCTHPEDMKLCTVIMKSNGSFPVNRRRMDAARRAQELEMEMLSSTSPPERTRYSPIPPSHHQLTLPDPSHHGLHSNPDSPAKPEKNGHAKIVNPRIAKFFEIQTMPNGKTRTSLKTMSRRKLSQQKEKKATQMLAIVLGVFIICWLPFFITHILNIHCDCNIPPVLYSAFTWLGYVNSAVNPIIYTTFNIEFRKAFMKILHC

T1 sequence (P18901 whole entry): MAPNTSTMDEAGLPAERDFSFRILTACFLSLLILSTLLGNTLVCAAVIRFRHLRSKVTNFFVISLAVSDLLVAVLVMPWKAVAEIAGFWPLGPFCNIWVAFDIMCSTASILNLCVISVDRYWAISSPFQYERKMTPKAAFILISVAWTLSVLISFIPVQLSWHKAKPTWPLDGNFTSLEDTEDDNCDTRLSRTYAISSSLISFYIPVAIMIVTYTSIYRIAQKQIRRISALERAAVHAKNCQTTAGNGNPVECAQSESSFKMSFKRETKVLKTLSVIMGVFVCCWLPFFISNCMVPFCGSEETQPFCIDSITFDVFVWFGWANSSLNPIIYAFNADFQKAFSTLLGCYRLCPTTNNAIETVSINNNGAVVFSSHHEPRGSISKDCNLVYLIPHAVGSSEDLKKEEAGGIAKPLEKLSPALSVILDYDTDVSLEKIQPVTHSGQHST
T2 sequence (O77680 whole entry): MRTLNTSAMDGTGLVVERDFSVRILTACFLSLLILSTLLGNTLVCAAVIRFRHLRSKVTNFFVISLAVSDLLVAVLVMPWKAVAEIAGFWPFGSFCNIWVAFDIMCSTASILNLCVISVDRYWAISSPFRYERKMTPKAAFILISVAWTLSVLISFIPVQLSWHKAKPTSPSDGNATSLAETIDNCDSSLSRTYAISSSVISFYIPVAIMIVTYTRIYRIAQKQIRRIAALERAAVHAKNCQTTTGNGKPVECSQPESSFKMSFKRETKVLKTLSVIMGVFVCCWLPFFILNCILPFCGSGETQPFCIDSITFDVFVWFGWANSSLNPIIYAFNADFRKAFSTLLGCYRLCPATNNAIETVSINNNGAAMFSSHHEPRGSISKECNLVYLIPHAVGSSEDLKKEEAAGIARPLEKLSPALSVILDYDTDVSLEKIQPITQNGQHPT

Row | Compound | intrinsic efficacy at D1 receptor, in words (D1 receptor) | D1 binding nH (Hill slope) ([1]; rat striatal homogenates) | agonist activity / efficacy, in words (D1 receptors) | agonist activity / efficacy, in words [2] | also measured
1 | C=CCN1CCc2c(cc(O)c(O)c2Cl)C(c2ccccc2)C1 (stereo not drawn) [SKF 82958] | not to have full intrinsic efficacy in preparations with decreased receptor reserve |  |  |  | 
2 | Oc1cc2c(cc1O)C(c1ccccc1)CNCC2 (single isomer, unassigned) [SKF 38393] | generally lacked full intrinsic efficacy | 0.75 ± 0.08 | partial agonist | partial agonist | agonist activity / efficacy, in words ([2]; listed as (+)-2): only of partial efficacy
3 | Oc1cc2c(cc1O)[C@H]1c3ccccc3CN[C@@H]1CC2 [dihydrexidine, (+)-trans-10,11-dihydroxy-5,6,6a,7,8,12b-hexahydrobenzo[a]phenanthridine] |  | 0.65 ± 0.01 | full agonist relative to dopamine | full efficacy; also recorded: full agonist relative to dopamine | anti-parkinsonian effects (MPTP-treated monkey): exceptional anti-parkinsonian effects; slope of D1 competition curve, in words ([1]; FIG. 3): shallower slopes; slope of D2 competition curve, in words (D2 receptors; FIG. 6, compared with chlorpromazine): shallower than for the prototypical D2 antagonist chlorpromazine
4 | CN1CCc2cc(Cl)c(O)cc2[C@@H](c2ccccc2)C1 [SCH23390] |  | 1.05 ± 0.01 |  |  | 
5 | NC[C@@H]1O[C@H](C23CC4CC(CC(C4)C2)C3)Cc2c1ccc(O)c2O [Example A-77636] |  |  |  |  | anti-parkinsonian effects (MPTP-treated monkey): exceptional anti-parkinsonian effects
6 | CN(C)CCCN1c2ccccc2Sc2ccc(Cl)cc21 [Chlorpromazine] |  |  |  |  | D2 binding nH (Hill slope) (D2 receptors; competition against 3H-spiperone, rat striatal homogenates): 0.93 ± 0.01
7 | Oc1cc2c(cc1O)[C@H]1c3ccccc3CN[C@@H]1CC2 [6aR,12bS] | high affinity full agonist at the D1 receptor |  |  |  | 
8 | Oc1ccc2c(c1O)Cc1cccc3c1C2CNC3 (racemic) [dinapsoline, (±)-8,9-dihydroxy-2,3,7,11b-tetrahydro-1H-naphtho[1,2,3-de] isoquinoline] |  | 0.66 | full agonist activity; also recorded: full agonist relative to dopamine | full efficacy; also recorded: full agonist activity; also recorded: full agonist relative to dopamine | slope of D1 competition curve, in words ([1]; FIG. 3): shallow competition curve; also recorded: shallower slopes; D1 affinity, in words ([1]; compared with dihydrexidine, rat striatal homogenates, FIG. 3): high affinity for dopamine D1 receptors; also recorded: almost identical affinity as dihydrexidine; D1 binding nH (Hill slope) ([1]; rat striatal homogenates, listed as (±)-4): 0.66 ± 0.01; EC50 (D1 receptors; read-out: EC50 in stimulating synthesis of cAMP via D1 receptors): ~30 nM; EC50 ([2]; C-6-mD1 cells, average of two experiments in duplicate, read-out: EC50 in stimulating synthesis of cAMP via D1 receptors): ~30 nM
